{"source": "patent US11311504B2", "about": "(priority 2012, dated 2022)", "test_system": "rat", "details": "in vivo"}
{"smiles": "CC(=O)Nc1ccc(O)cc1", "note": "[Paracetamol]", "values": [{"measurement": "timepoint of peak effect", "result": 120, "unit": "min p. appl."}]}
